Data from patent publication US20260234115A1, “LIPID COMPOUNDS, COMPOSITIONS, AND USES THEREOF” (Liberate Bio, Inc., priority 2023, published 2026).
Marks after values point to notes of the source that are not given here.

How the values were obtained:
[1] = Plate-based fluorescence (RiboGreen) assay: nucleic acid cargo content and encapsulation efficiency of LNPs; type: physicochemical; settings: for EE (%) N/P:6: LNP
Procedure, shortened: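 LNPs made by microfluidic mixing of ethanolic lipids with mRNA in pH 4.0 citrate, dialyzed into PBS pH 7.4. Cargo quantified by RiboGreen fluorescence against a standard curve: Triton-lysed samples give total, TE-only samples give free cargo; encapsulation efficiency from their ratio.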

mouse organs = assay: In vivo activity screening in mice: organ mean total flux (p/s) of luciferase activity after injection of F2 LNP pools (Table 6, FIG. 7A-7C); settings: luciferase mRNA
Procedure, shortened: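 C57BL/6J mice given one tail-vein injection of pooled Formulation F2 LNPs carrying firefly luciferase mRNA (0.25-3 mg/kg) in PBS. At 4-6 h, s.c. D-luciferin given; organs imaged ex vivo by IVIS within 10-15 min, after saline cardiac perfusion. Mean total flux (p/s) per organ ROI.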

[2] = Dynamic light scattering: LNP particle size and PDI; type: physicochemical; settings: for PDI N/P:6 / Size (nm) N/P:6: LNP
Procedure, shortened: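 The LNPs were made by microfluidic mixing of the lipids in ethanol with mRNA in pH 4.0 citrate, then dialyzed into PBS pH 7.4. They were diluted in PBS pH 7.4, and particle size and PDI were measured by dynamic light scattering.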

[3] = LNP compositions for Formulation F2 Study
[4] = LNP compositions for in vivo mouse study, four formulations (F1-F4) pooled, or pools of four compounds

Structure (SMILES): CCCCC/C=C\CCOC(=O)CCCCC(=O)OCC(COC(=O)CCCCC(=O)OCC/C=C\CCCCC)(COC(=O)CCC(CCCCCC)OC(=O)NCCN1CCCC1)COC(=O)CC12CC3CC(CC(C3)C1)C2 (stereo not drawn) [Compound 14, O6-[2-[[2-(1-adamantyl)acetyl]oxymethyl]-2-[[6-[(Z)-non-3-enoxy]-6-oxo-hexanoyl]oxymethyl]-3-[4-(2-pyrrolidin-1-ylethylcarbamoyloxy)decanoyloxy]propyl]O1-[(Z)-non-3-enyl]hexanedioate]
- EE % [1, 3]: 99%
- EE % [1, 4]: 96%
- mRNA Content [1, 4]: 93 µg/mL
- EE (%) N/P:6 ([1]; Formulation F1, N/P 6): 99%
- EE (%) N/P:6 ([1]; Formulation F2, N/P 6): 99%
- EE (%) N/P:6 ([1]; Formulation F3, N/P 6): 99%
- EE (%) N/P:6 ([1]; Formulation F4, N/P 6): 98%
- Organ Mean Total Flux Femur (mouse organs; Mouse 1, dose 0.3 mg/kg): 9.3 p/s (×10^6)
- Organ Mean Total Flux Heart (mouse organs; Mouse 1, dose 0.3 mg/kg): 1.8 p/s (×10^6)
- Organ Mean Total Flux Kidney (mouse organs; Mouse 1, dose 0.3 mg/kg): 2.8 p/s (×10^6)
- Organ Mean Total Flux Liver (mouse organs; Mouse 1, dose 0.3 mg/kg): 3910 p/s (×10^6)
- Organ Mean Total Flux Lung (mouse organs; Mouse 1, dose 0.3 mg/kg): 31.9 p/s (×10^6)
- Organ Mean Total Flux Muscle (mouse organs; Mouse 1, dose 0.3 mg/kg): 9.5 p/s (×10^6)
- Organ Mean Total Flux Pancreas (mouse organs; Mouse 1, dose 0.3 mg/kg): 14.9 p/s (×10^6)
- Organ Mean Total Flux Spleen (mouse organs; Mouse 1, dose 0.3 mg/kg): 31.5 p/s (×10^6)
- Organ Mean Total Flux Femur (mouse organs; Mouse 2, dose 1.0 mg/kg): 62.6 p/s (×10^6)
- Organ Mean Total Flux Heart (mouse organs; Mouse 2, dose 1.0 mg/kg): 5.9 p/s (×10^6)
- Organ Mean Total Flux Kidney (mouse organs; Mouse 2, dose 1.0 mg/kg): 7.0 p/s (×10^6)
- Organ Mean Total Flux Liver (mouse organs; Mouse 2, dose 1.0 mg/kg): 2883 p/s (×10^6)
- Organ Mean Total Flux Lung (mouse organs; Mouse 2, dose 1.0 mg/kg): 96.9 p/s (×10^6)
- Organ Mean Total Flux Muscle (mouse organs; Mouse 2, dose 1.0 mg/kg): 144.9 p/s (×10^6)
- Organ Mean Total Flux Pancreas (mouse organs; Mouse 2, dose 1.0 mg/kg): 32.1 p/s (×10^6)
- Organ Mean Total Flux Spleen (mouse organs; Mouse 2, dose 1.0 mg/kg): 107.0 p/s (×10^6)
- Organ Mean Total Flux Femur (mouse organs; Mouse 3, dose 1.0 mg/kg): 41.8 p/s (×10^6)
- Organ Mean Total Flux Heart (mouse organs; Mouse 3, dose 1.0 mg/kg): 8.6 p/s (×10^6)
- Organ Mean Total Flux Kidney (mouse organs; Mouse 3, dose 1.0 mg/kg): 7.7 p/s (×10^6)
- Organ Mean Total Flux Liver (mouse organs; Mouse 3, dose 1.0 mg/kg): 4307 p/s (×10^6)
- Organ Mean Total Flux Lung (mouse organs; Mouse 3, dose 1.0 mg/kg): 49.2 p/s (×10^6)
- Organ Mean Total Flux Muscle (mouse organs; Mouse 3, dose 1.0 mg/kg): 193.7 p/s (×10^6)
- Organ Mean Total Flux Pancreas (mouse organs; Mouse 3, dose 1.0 mg/kg): 23.4 p/s (×10^6)
- Organ Mean Total Flux Spleen (mouse organs; Mouse 3, dose 1.0 mg/kg): 123.8 p/s (×10^6)
- Organ Mean Total Flux Femur (mouse organs; Mouse 5, dose 0.5 mg/kg): 11.9 p/s (×10^6)
- Organ Mean Total Flux Heart (mouse organs; Mouse 5, dose 0.5 mg/kg): 4.4 p/s (×10^6)
- Organ Mean Total Flux Kidney (mouse organs; Mouse 5, dose 0.5 mg/kg): 1.8 p/s (×10^6)
- Organ Mean Total Flux Liver (mouse organs; Mouse 5, dose 0.5 mg/kg): 1303 p/s (×10^6)
- Organ Mean Total Flux Lung (mouse organs; Mouse 5, dose 0.5 mg/kg): 18.9 p/s (×10^6)
- Organ Mean Total Flux Muscle (mouse organs; Mouse 5, dose 0.5 mg/kg): 34.1 p/s (×10^6)
- Organ Mean Total Flux Pancreas (mouse organs; Mouse 5, dose 0.5 mg/kg): 1.9 p/s (×10^6)
- Organ Mean Total Flux Spleen (mouse organs; Mouse 5, dose 0.5 mg/kg): 20.8 p/s (×10^6)
- Organ Mean Total Flux Femur (mouse organs; Mouse 6, dose 0.5 mg/kg): 9.1 p/s (×10^6)
- Organ Mean Total Flux Heart (mouse organs; Mouse 6, dose 0.5 mg/kg): 1.6 p/s (×10^6)
- Organ Mean Total Flux Kidney (mouse organs; Mouse 6, dose 0.5 mg/kg): 3.2 p/s (×10^6)
- Organ Mean Total Flux Liver (mouse organs; Mouse 6, dose 0.5 mg/kg): 676.3 p/s (×10^6)
- Organ Mean Total Flux Lung (mouse organs; Mouse 6, dose 0.5 mg/kg): 17.3 p/s (×10^6)
- Organ Mean Total Flux Muscle (mouse organs; Mouse 6, dose 0.5 mg/kg): 27.6 p/s (×10^6)
- Organ Mean Total Flux Pancreas (mouse organs; Mouse 6, dose 0.5 mg/kg): 14.7 p/s (×10^6)
- Organ Mean Total Flux Spleen (mouse organs; Mouse 6, dose 0.5 mg/kg): 28.7 p/s (×10^6)
- Organ Mean Total Flux Femur (mouse organs; Mouse 9, dose 0.5 mg/kg): 13.3 p/s (×10^6)
- Organ Mean Total Flux Heart (mouse organs; Mouse 9, dose 0.5 mg/kg): 1.2 p/s (×10^6)
- Organ Mean Total Flux Kidney (mouse organs; Mouse 9, dose 0.5 mg/kg): 2.5 p/s (×10^6)
- Organ Mean Total Flux Liver (mouse organs; Mouse 9, dose 0.5 mg/kg): 721.0 p/s (×10^6)
- Organ Mean Total Flux Lung (mouse organs; Mouse 9, dose 0.5 mg/kg): 10.4 p/s (×10^6)
- Organ Mean Total Flux Muscle (mouse organs; Mouse 9, dose 0.5 mg/kg): 31.2 p/s (×10^6)
- Organ Mean Total Flux Pancreas (mouse organs; Mouse 9, dose 0.5 mg/kg): 10.2 p/s (×10^6)
- Organ Mean Total Flux Spleen (mouse organs; Mouse 9, dose 0.5 mg/kg): 32.2 p/s (×10^6)
- Organ Mean Total Flux Femur (mouse organs; Mouse 11, dose 0.5 mg/kg): 10.1 p/s (×10^6)
- Organ Mean Total Flux Heart (mouse organs; Mouse 11, dose 0.5 mg/kg): 1.8 p/s (×10^6)
- Organ Mean Total Flux Kidney (mouse organs; Mouse 11, dose 0.5 mg/kg): 0.9 p/s (×10^6)
- Organ Mean Total Flux Liver (mouse organs; Mouse 11, dose 0.5 mg/kg): 360.7 p/s (×10^6)
- Organ Mean Total Flux Lung (mouse organs; Mouse 11, dose 0.5 mg/kg): 25.4 p/s (×10^6)
- Organ Mean Total Flux Muscle (mouse organs; Mouse 11, dose 0.5 mg/kg): 24.2 p/s (×10^6)
- Organ Mean Total Flux Pancreas (mouse organs; Mouse 11, dose 0.5 mg/kg): 4.2 p/s (×10^6)
- Organ Mean Total Flux Spleen (mouse organs; Mouse 11, dose 0.5 mg/kg): 26.2 p/s (×10^6)
- Organ Mean Total Flux Femur (mouse organs; Mouse 12, dose 0.5 mg/kg): 9.3 p/s (×10^6)
- Organ Mean Total Flux Heart (mouse organs; Mouse 12, dose 0.5 mg/kg): 1.8 p/s (×10^6)
- Organ Mean Total Flux Kidney (mouse organs; Mouse 12, dose 0.5 mg/kg): 2.2 p/s (×10^6)
- Organ Mean Total Flux Liver (mouse organs; Mouse 12, dose 0.5 mg/kg): 585.3 p/s (×10^6)
- Organ Mean Total Flux Lung (mouse organs; Mouse 12, dose 0.5 mg/kg): 32.4 p/s (×10^6)
- Organ Mean Total Flux Muscle (mouse organs; Mouse 12, dose 0.5 mg/kg): 35.5 p/s (×10^6)
- Organ Mean Total Flux Pancreas (mouse organs; Mouse 12, dose 0.5 mg/kg): 3.5 p/s (×10^6)
- Organ Mean Total Flux Spleen (mouse organs; Mouse 12, dose 0.5 mg/kg): 21.1 p/s (×10^6)
- Organ Mean Total Flux Femur (mouse organs; Mouse 13, dose 0.5 mg/kg): 8.3 p/s (×10^6)
- Organ Mean Total Flux Heart (mouse organs; Mouse 13, dose 0.5 mg/kg): 1.1 p/s (×10^6)
- Organ Mean Total Flux Kidney (mouse organs; Mouse 13, dose 0.5 mg/kg): 5.7 p/s (×10^6)
- Organ Mean Total Flux Liver (mouse organs; Mouse 13, dose 0.5 mg/kg): 439.7 p/s (×10^6)
- Organ Mean Total Flux Lung (mouse organs; Mouse 13, dose 0.5 mg/kg): 16.8 p/s (×10^6)
- Organ Mean Total Flux Muscle (mouse organs; Mouse 13, dose 0.5 mg/kg): 16.7 p/s (×10^6)
- Organ Mean Total Flux Pancreas (mouse organs; Mouse 13, dose 0.5 mg/kg): 5.3 p/s (×10^6)
- Organ Mean Total Flux Spleen (mouse organs; Mouse 13, dose 0.5 mg/kg): 19.7 p/s (×10^6)
- Organ Mean Total Flux Femur (mouse organs; Mouse 14, dose 0.5 mg/kg): 10.8 p/s (×10^6)
- Organ Mean Total Flux Heart (mouse organs; Mouse 14, dose 0.5 mg/kg): 2.0 p/s (×10^6)
- Organ Mean Total Flux Kidney (mouse organs; Mouse 14, dose 0.5 mg/kg): 4.6 p/s (×10^6)
- Organ Mean Total Flux Liver (mouse organs; Mouse 14, dose 0.5 mg/kg): 240.7 p/s (×10^6)
- Organ Mean Total Flux Lung (mouse organs; Mouse 14, dose 0.5 mg/kg): 12.6 p/s (×10^6)
- Organ Mean Total Flux Muscle (mouse organs; Mouse 14, dose 0.5 mg/kg): 41.1 p/s (×10^6)
- Organ Mean Total Flux Pancreas (mouse organs; Mouse 14, dose 0.5 mg/kg): 7.6 p/s (×10^6)
- Organ Mean Total Flux Spleen (mouse organs; Mouse 14, dose 0.5 mg/kg): 24.0 p/s (×10^6)
- PDI [2, 3]: 0.178
- Particle Size (nm) [2, 3]: 107.6 nm
- Particle Size (nm) ([2]; LNP compositions for in vivo mouse study, four formulations (F1-F4) of the lipid compound pooled, or pools of four compounds (sixteen compositions)): 82.9 nm
- PDI [2, 4]: 0.106
- PDI N/P:6 ([2]; Formulation F1, N/P 6): 0.06
- Size (nm) N/P:6 ([2]; Formulation F1, N/P 6): 78 ± 2 nm
- PDI N/P:6 ([2]; Formulation F2, N/P 6): 0.07
- Size (nm) N/P:6 ([2]; Formulation F2, N/P 6): 90 ± 5 nm
- PDI N/P:6 ([2]; Formulation F3, N/P 6): 0.14
- Size (nm) N/P:6 ([2]; Formulation F3, N/P 6): 83 ± 1 nm
- PDI N/P:6 ([2]; Formulation F4, N/P 6): 0.09
- Size (nm) N/P:6 ([2]; Formulation F4, N/P 6): 68 ± 3 nm
